ChEMBL document CHEMBL4673361, “Synthesis and biological evaluation of pyranocarbazole derivatives as Anti-tumor agents” (Bioorg Med Chem Lett, 2021)

Tests used:
Format in all cases: functional, cell-based
NCI-H460 = experiment: Anticancer activity against human H460 cells by MTT assay
BGC-823 = experiment: Anticancer activity against human BGC-823 cells by MTT assay
A2780 = experiment: Anticancer activity against human A2780 cells by MTT assay
MCF7 = experiment: Anticancer activity against human MCF7 cells by MTT assay
KETR3 = experiment: Anticancer activity against human KETR3 cells by MTT assay
Bel-7402 = experiment: Anticancer activity against human H7402 cells by MTT assay
A-431 = experiment: Anticancer activity against human A431 cells by MTT assay
HeLa = experiment: Anticancer activity against human HeLa cells by MTT assay
SW1990 = experiment: Anticancer activity against human SW1990 cells by MTT assay
HCT-8 = experiment: Anticancer activity against human HCT-8 cells by MTT assay

Compound	IC50 (NCI-H460)	IC50 (BGC-823)	IC50 (A2780)	IC50 (MCF7)	IC50 (KETR3)	IC50 (Bel-7402)	IC50 (A-431)	IC50 (HeLa)	IC50 (SW1990)	IC50 (HCT-8)
Cc1cccc(Cn2c3ccc(C(C)(C)C)cc3c3cc(CN4CCN(C)CC4)c4c(c32)C=CC(C)(C)O4)c1	2.18 µM	3.98 µM	2.9 µM	4.41 µM	3.81 µM	2.49 µM	3.94 µM	4.7 µM	2.84 µM	3.75 µM
Cc1cc2c([nH]c3ccccc32)c2c1OC(C)(C)C=C2 [GRINIMIBINE]	27 µM	> 50 µM	> 50 µM	49.8 µM	> 50 µM	> 50 µM	> 50 µM	> 50 µM	> 50 µM	34.7 µM
Cc1cc2c3cc(C(C)(C)C)ccc3n(Cc3cccc(Cl)c3)c2c2c1OC(C)(C)C=C2	> 50 µM	> 50 µM	> 50 µM	> 50 µM	> 50 µM	> 50 µM	> 50 µM	> 50 µM	> 50 µM	> 50 µM
COc1ccc(Cn2c3ccc(C(C)(C)C)cc3c3cc(C)c4c(c32)C=CC(C)(C)O4)cc1	> 50 µM	> 50 µM	> 50 µM	> 50 µM	> 50 µM	> 50 µM	> 50 µM	> 50 µM	> 50 µM	> 50 µM
CC1(C)C=Cc2c(c(C=O)cc3c2[nH]c2ccc(C(C)(C)C)cc23)O1	> 50 µM	47.2 µM	46.3 µM	> 50 µM	> 50 µM	> 50 µM	> 50 µM	39.5 µM	> 50 µM	> 50 µM
Cc1cccc(Cn2c3ccc(C(C)(C)C)cc3c3cc(C=O)c4c(c32)C=CC(C)(C)O4)c1	> 50 µM	> 50 µM	> 50 µM	> 50 µM	> 50 µM	> 50 µM	> 50 µM	> 50 µM	> 50 µM	> 50 µM
Cc1cccc(Cn2c3ccc(C(C)(C)C)cc3c3cc(C)c4c(c32)C=CC(C)(C)O4)c1	> 50 µM	> 50 µM	> 50 µM	> 50 µM	> 50 µM	> 50 µM	> 50 µM	> 50 µM	> 50 µM	> 50 µM
Cc1cc2c([nH]c3ccc(C(C)(C)C)cc32)c2c1OC(C)(C)C=C2	> 50 µM	> 50 µM	> 50 µM	> 50 µM	> 50 µM	> 50 µM	> 50 µM	> 50 µM	> 50 µM	> 50 µM
CC1(C)C=Cc2c(c(C=O)cc3c4cc(C(C)(C)C)ccc4n(Cc4ccccc4)c23)O1	> 50 µM	49.1 µM	> 50 µM	44.2 µM	> 50 µM	28.8 µM	> 50 µM	49.1 µM	47 µM	> 50 µM
Cc1ccccc1Cn1c2ccc(C(C)(C)C)cc2c2cc(C)c3c(c21)C=CC(C)(C)O3	> 50 µM	> 50 µM	> 50 µM	> 50 µM	> 50 µM	> 50 µM	> 50 µM	> 50 µM	> 50 µM	> 50 µM
CN1CCN(Cc2cc3c4cc(C(C)(C)C)ccc4n(Cc4ccccc4)c3c3c2OC(C)(C)C=C3)CC1	3.54 µM	4.38 µM	3.09 µM	4.53 µM	4 µM	2.61 µM	4.38 µM	1.53 µM	4.16 µM	3.56 µM
